US20100210649A1, “PYRIDAZINONES AND FURAN-CONTAINING COMPOUNDS” (Sloan-Kettering Institute for Cancer Research, priority 2006, published 2010)
Where “and” joins values, the source holds several entries; their conditions need not be identical. Identical values can stand only once. Like-named read-outs stand apart in the source and are kept apart here.

Tests used:
[1] = test system: HPL1D (human peripheral lung epithelial) cell line; test: Cell proliferation / dose response (Alamar Blue), HPL1D; format: cell-based; conditions: read-out: IC50 HPL1D
Protocol: WI-38: human lung fibroblast cell line. […] WT: wildtype; WT*: over-expressed wildtype. Dose response studies against 34 compounds from the pyridazinone and phenylfuran-carboxamide class were conducted. […] In addition, Tarceva was included in these dose response studies. The dose response studies were done with the following standard procedure. […] The cells were incubated for 48 hours at 37 C to complete treatment, and then alamar blue was added for an additional 48 hours. Finally, alamar blue reduction was measured and the data was loaded into ORIS, our data screening acquisition platform.

[2] = test system: H3255; test: Non Small Cell Lung Cancer proliferation assay (Alamar Blue reduction), H3255; format: cell-based, human; conditions: for inhibition at 10 µM: NCI-H3255, primary screening; for inhibition at 10 µM / CONFIRMATION [%] 3255: 10 μM compound in 1% DMSO (v/v); for CONFIRMATION [%] 3255: percentage inhibition
Procedure, shortened: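 Dose-response run: cells were counted, dispensed at 250 cells/well onto compound, incubated 48 hours at 37° C, then incubated with Alamar Blue for an additional 48 hours before fluorescence measurement. All wells held 1% DMSO final.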

[3] = test system: H1118; test: Non Small Cell Lung Cancer proliferation assay (Alamar Blue reduction), H1118; format: cell-based; conditions: Homo sapiens
Protocol: Non Small Cell Lung Cancer Proliferation Assay. To perform the assay, the Non Small Cell Lung Cancer lines are diluted in media and plated into 384 well microplates at a final density of 250 cells in […]. To ensure consistency and minimal pipetting error, the cells are plated using the Multidrop 384 with the following settings: Rocker Switch set at 384, Volume 45 and Column 24.
Low Controls for this assay are made by treating Non Small Cell Lung Cancer cells with 5 ul of staurosporine at 250 uM in 10% DMSO and 1% SDS. [Final concentration in this assay is 25 uM staurosporine in 1% DMSO and 0.1% SDS.]
(§1) High Controls for this assay are made by treating Non Small Cell Lung Cancer cells with 5 ul of 10% DMSO. [Final concentration in this assay is 1% DMSO].
The remaining wells of the 384 microplate may be treated with different compounds depending on the study. Important Note: All compounds for testing in this assay should be done at the final concentration of 1% DMSO.
(§2) After addition, the cells are placed in cell culture incubator at 37° C. for 48 hours for complete treatment.
After drug treatment, cytotoxicity is measured by Alamar Blue reduction. 5 μL of Alamar Blue is added to the 384 microplates using the Flexdrop.
(§3) The cells are incubated for 48 hours at 37° C. to complete the Alamar Blue reduction.
(§4) The final step in the assay is to measure the amount of Alamar Blue reduction. […] The Alamar Blue fluorescence is measured at an excitation of 530 nm and emission of 590 nm.
(§5) For the NSCLC project, the cell based assay was screened against a small molecule library of approximately 200,000 compounds. The compound library is stored in our automated robotic freezer (Biophile) at −20° C. in 100% DMSO. Compound freeze and thaw cycles are kept to a minimum. Compounds for use are diluted into the appropriate concentration and plated into 384 well microplates using our custom built low volume 384-well head tool (TPS 384, Apricot Designs Inc., CA, USA). This assay was performed on a fully automated linear track robotic platform (CRS F3 Robot System, Thermo Electron Corp., Ontario, Canada) utilizing several integrated peripherals for plate handling, liquid dispensing, and readout detection. First, non-small cell lung cancer cell lines are dispensed into 384 well microplates (Corning #3712 Tissue Culture Treated Plate, Corning, N.Y., USA) with 5 μL of test compounds at 100 uM in 10% DMSO for screening studies or 1 mM in 10% DMSO to 50 nM in 10% DMSO for dose response studies. The microplates are then placed at 37° C. for 48 hours to complete treatment of cells with compounds. Next, 5 ul of alamar blue was added using a liquid dispenser (Flexprop Precision Dispenser, Perkin Elmer, Mass., USA) and incubated for 48 hours at 37° C. The alamar blue prompt fluorescence was measured on Victor V (Victor^3 V, Perkin Elmer, Mass., USA) and output data files were loaded into ORIS (Oncology Research Informatics System, MSKCC, NY, USA), a screening data acquisition and analysis platform.
(§6) The dose response studies were done with the following standard procedure. First, the cells were counted and dispensed at 250 cells/well into 384-well microplates with compound. The cells were incubated for 48 hours at 37 C to complete treatment, and then alamar blue was added for an additional 48 hours. Finally, alamar blue reduction was measured and the data was loaded into ORIS, our data screening acquisition platform.

[4] = test system: H460; test: Dose response study (Alamar Blue), H460; format: cell-based; conditions: Homo sapiens, read-out: IC50 H460
Protocol: (§7) Dose response studies against 34 compounds from the pyridazinone and phenylfuran-carboxamide class were conducted. […] In addition, Tarceva was included in these dose response studies.
as §6

[5] = test system: H1734; test: Non Small Cell Lung Cancer proliferation assay (Alamar Blue reduction), H1734; format: cell-based, human; conditions: Homo sapiens
Protocol: These cells have a doubling time of 1-2 days. All cell types are adherent and grow in colonies. The cells should be kept at a density between 50,000 cells/mL -500,000 cells/mL to provide for optimum growth and adequate nutrition. The cell line should be maintained at 37° C. in a humidified atmosphere with 5% CO2 in a sterile cell culture incubator.
Non Small Cell Lung Cancer Proliferation Assay.
as §1
Important Note: All compounds for testing in this assay should be done at the final concentration of 1% DMSO.
as §2
After drug treatment, cytotoxicity is measured by Alamar Blue reduction.
as §3, §4
as §5, with “Compounds for use are diluted into the appropriate concentration and plated into 384 well microplates using our custom built low volume 384-well head tool (TPS 384, Apricot Designs Inc., CA, USA).” left out, “First, non-small cell lung cancer cell lines are dispensed into 384 well microplates (Corning #3712 Tissue Culture Treated Plate, Corning, N.Y., USA) with 5 μL of test compounds at 100 uM in 10% DMSO for screening studies or 1 mM in 10% DMSO to 50 nM in 10% DMSO for dose response studies.” left out
as §6

[6] = test system: PC9; test: Dose response study (Alamar Blue), PC9; format: cell-based; conditions: Homo sapiens, read-out: IC50 PC9
Protocol: as §7, §6

[7] = HPL1D, 12 point doubling dilution 10 uM to 5 nM, 48 h treatment, alamar blue additional 48 h
[8] = Homo sapiens, NCI-H3255, 48 h, H3255, 12 point doubling dilution 10 uM to 5 nM, 48 h treatment, alamar blue additional 48 h, read-out: IC50 H3255
[9] = Homo sapiens, NCI-H3255, dose response 10 M to 5 nM, IC50, read-out: Dose Response (uM) H3255
[10] = H1118, 12 point doubling dilution 10 uM to 5 nM, 48 h treatment, alamar blue additional 48 h, read-out: IC50 H1118
[11] = NCI-H460, H460, 12 point doubling dilution 10 uM to 5 nM, 48 h treatment, alamar blue additional 48 h
[12] = NCI-H1734, H1734, 12 point doubling dilution 10 uM to 5 nM, 48 h treatment, alamar blue additional 48 h, read-out: IC50 H1734
[13] = NCI-H1734, read-out: Dose Response (uM) H1734
[14] = PC-9, PC9, 12 point doubling dilution 10 uM to 5 nM, 48 h treatment, alamar blue additional 48 h
[15] = read-out: Dose Response (uM) H1118
[16] = Homo sapiens, NCI-H3255, phenylfuran-2-carboxamide SAR summary, read-out: IC50(uM) 3255
[17] = Homo sapiens, H3255, read-out: PRIMARY HTS [%] H3255 (percentage inhibition)

Row | Compound | IC50 [2, 8] [µM] | IC50 [2, 9] [µM] | IC50 [3, 10] [µM] | IC50 [4, 11] [nM] | IC50 [5, 12] [µM] | IC50 [5, 13] [µM] | IC50 [6, 14] [nM] | IC50 [3, 15] [µM] | IC50 [2, 16] [µM] | IC50 ([2]; phenylfuran-2-carboxamide SAR summary, read-out: IC50(uM) 3255) [µM] | IC50 [1, 7] [nM] | inhibition at 10 µM ([2]; Homo sapiens, read-out: percentage inhibition H3255) [%] | inhibition at 10 µM [2, 17] [%] | CONFIRMATION [%] 3255 [2] | IC50 ([1]; 48 h) [nM] | IC50 ([3]; 48 h, read-out: IC50 H1118) [µM] | IC50 ([4]; NCI-H460, 48 h) [nM] | IC50 ([5]; NCI-H1734, 48 h, H1734, 12 point doubling dilution 10 uM to 5 nM, 48 h treatment, alamar blue additional 48 h, read-out: IC50 H1734) [µM] | IC50 ([6]; PC-9, 48 h) [nM]
1 | O=c1c(Cl)c(Cl)cnn1-c1ccccn1 [compound 267090] | 0.7 | 0.5 | 0.15 | 790 | 2.47 | 1.1 | 470 | – | – | – | 170 | – | – | – | – | – | – | – | –
2 | Cc1cccc(-n2ncc(Cl)c(Cl)c2=O)c1C [compound 257018] | 1.86 | 1.63 | 0.54 | 3510 | 2.51 | 2.12 | 1570 | 0.44 | – | – | 1300 | – | – | – | – | – | – | – | –
3 | O=c1c(Br)c(Br)cnn1-c1cccc(C(F)(F)F)c1 [compound 267072] | 1.64 | 1 | 1.21 | 2760 | 3.19 | 0.51 | 2590 | – | – | – | 510 | – | – | – | – | – | – | – | –
4 | CCCCc1cccc(-n2ncc(Cl)c(Cl)c2=O)c1 [compound 267063] | 8.35 | 3.89 | 6.41 | > 10000 | > 10 | 3.25 | 8890 | – | – | – | 7040 | – | – | – | – | – | – | – | –
5 | O=C(Nc1ccc(F)c(Cl)c1)c1ccc([N+](=O)[O-])o1 [compound 87200] | > 10 | – | 4.33 | > 10000 | > 10 | – | 8670 | – | 0.69 | – | > 10000 | – | 6 | 103% | – | – | – | – | –
6 | O=c1c(Cl)c(Cl)cnn1-c1ccc(Cl)cc1Cl [compound 267077] | 8.75 | – | 3.73 | > 10000 | > 10 | 0.52 | > 10000 | – | – | – | 4950 | – | – | – | – | – | – | – | –
7 | Cc1cccc(NC(=O)c2ccc([N+](=O)[O-])o2)c1 [compound 71762] | 2.41 | – | 0.38 | 1850 | 4.88 | – | 1890 | – | 0.95 | 1.01 | > 10000 | – | 100 | 122% and 97% | – | – | – | – | –
8 | Cc1ccc(NC(=O)c2ccc([N+](=O)[O-])o2)cc1 [compound 98697] | 2.72 | – | – | – | – | – | – | – | 0.91 | – | – | – | 83 | 130% | > 10000 | 0.56 | 2200 | 4.42 | 2170
9 | O=c1c(Br)c(Br)cnn1-c1ccccc1 [compound 257015] | 0.76 | 0.62 | 0.37 | 1300 | 1.62 | 0.87 | 710 | 0.22 | – | – | 300 | – | – | – | – | – | – | – | –

More lines, main results first:

Row | IC50 [2, 8] [µM] | IC50 [2, 9] [µM] | IC50 [3, 10] [µM] | IC50 [4, 11] [nM] | IC50 [5, 12] [µM] | IC50 [5, 13] [µM] | IC50 [6, 14] [nM] | IC50 [3, 15] [µM] | IC50 [2, 16] [µM] | IC50 ([2]; phenylfuran-2-carboxamide SAR summary, read-out: IC50(uM) 3255) [µM] | Compound | IC50 [1, 7] [nM] | inhibition at 10 µM ([2]; Homo sapiens, read-out: percentage inhibition H3255) [%] | inhibition at 10 µM [2, 17] [%] | CONFIRMATION [%] 3255 [2] | IC50 ([1]; 48 h) [nM] | IC50 ([3]; 48 h, read-out: IC50 H1118) [µM] | IC50 ([4]; NCI-H460, 48 h) [nM] | IC50 ([5]; NCI-H1734, 48 h, H1734, 12 point doubling dilution 10 uM to 5 nM, 48 h treatment, alamar blue additional 48 h, read-out: IC50 H1734) [µM] | IC50 ([6]; PC-9, 48 h) [nM]
10 | 2.01 | 1.23 | 0.94 | 4090 | 4.65 | 2.01 | 1980 | 0.29 | – | – | Cc1ccc(-n2ncc(Cl)c(Cl)c2=O)cc1C [compound 257019] | 620 | – | – | – | – | – | – | – | –
11 | 0.66 | 0.73 | 0.31 | 1260 | 1.22 | 0.61 | 900 | 0.2 | – | – | O=c1c(Cl)c(Cl)cnn1-c1cccc(C(F)(F)F)c1 [compound 176729] | 250 | 115 | – | – | – | – | – | – | –
12 | > 10 | > 10 | > 10 | > 10000 | > 10 | > 10 | > 10000 | – | – | – | Cc1cc(-n2ncc(Cl)c(Cl)c2=O)ccc1Cl [compound 267065] | 6660 | – | – | – | – | – | – | – | –
13 | > 10 | 3.64 | > 10 | > 10000 | > 10 | 2.57 | > 10000 | – | – | – | Cc1nc2cc(-n3ncc(Cl)c(Cl)c3=O)ccc2s1 [compound 267067] | 7010 | – | – | – | – | – | – | – | –
14 | 4.61 | 1.35 | 2.73 | 6560 | 8.85 | 1.45 | 5870 | – | – | – | O=c1c(Cl)c(Cl)cnn1-c1ccc2c(c1)CCC2 [compound 267066] | 1660 | – | – | – | – | – | – | – | –
15 | 1.51 | 1.5 | 0.67 | 2880 | 2.89 | 1.75 | 1510 | – | – | – | CCc1cccc(-n2ncc(Cl)c(Cl)c2=O)c1 [compound 267062] | 380 | – | – | – | – | – | – | – | –
